Experimental findings from patent publication US12427183B2, “Methods of treating cancer, infectious disease, and autoimmune disease using chemokines” (New York Society for the Relief of the Ruptured and …, priority 2016, dated 2025) are described below.

Data set [1] concerns CXCR3. As to the kind of experiment: CXCR3 inhibition during chemokine-potentiated TLR9 activation of pDCs, IFN-α ELISA. The format is cell-based, human. The settings on record: AMG487 0.1, 1 or 10 μM, CpG 0.25 μM, 24 hours. The method, then: Purified pDCs from HDs were cultured in media alone (control), with either a CpG TLR9 agonist (0.25 μM) or with CpG and either CXCL4 or CXCL10 (both at 10 μg/ml) alone or in the presence of the CXCR3 inhibitor AMG487 at 0, 0.1, 1 or 10 μM for 24 hours. IFN-α was quantified in the supernatants by ELISA.
A general note: ELISA stands for enzyme-linked immunosorbent assay.

The target in data set [2] is PI3Kδ (Homo sapiens, UniProt O00329). The settings on record: at the concentration used (10 μM).
Chain of PI3Kδ (O00329 whole entry): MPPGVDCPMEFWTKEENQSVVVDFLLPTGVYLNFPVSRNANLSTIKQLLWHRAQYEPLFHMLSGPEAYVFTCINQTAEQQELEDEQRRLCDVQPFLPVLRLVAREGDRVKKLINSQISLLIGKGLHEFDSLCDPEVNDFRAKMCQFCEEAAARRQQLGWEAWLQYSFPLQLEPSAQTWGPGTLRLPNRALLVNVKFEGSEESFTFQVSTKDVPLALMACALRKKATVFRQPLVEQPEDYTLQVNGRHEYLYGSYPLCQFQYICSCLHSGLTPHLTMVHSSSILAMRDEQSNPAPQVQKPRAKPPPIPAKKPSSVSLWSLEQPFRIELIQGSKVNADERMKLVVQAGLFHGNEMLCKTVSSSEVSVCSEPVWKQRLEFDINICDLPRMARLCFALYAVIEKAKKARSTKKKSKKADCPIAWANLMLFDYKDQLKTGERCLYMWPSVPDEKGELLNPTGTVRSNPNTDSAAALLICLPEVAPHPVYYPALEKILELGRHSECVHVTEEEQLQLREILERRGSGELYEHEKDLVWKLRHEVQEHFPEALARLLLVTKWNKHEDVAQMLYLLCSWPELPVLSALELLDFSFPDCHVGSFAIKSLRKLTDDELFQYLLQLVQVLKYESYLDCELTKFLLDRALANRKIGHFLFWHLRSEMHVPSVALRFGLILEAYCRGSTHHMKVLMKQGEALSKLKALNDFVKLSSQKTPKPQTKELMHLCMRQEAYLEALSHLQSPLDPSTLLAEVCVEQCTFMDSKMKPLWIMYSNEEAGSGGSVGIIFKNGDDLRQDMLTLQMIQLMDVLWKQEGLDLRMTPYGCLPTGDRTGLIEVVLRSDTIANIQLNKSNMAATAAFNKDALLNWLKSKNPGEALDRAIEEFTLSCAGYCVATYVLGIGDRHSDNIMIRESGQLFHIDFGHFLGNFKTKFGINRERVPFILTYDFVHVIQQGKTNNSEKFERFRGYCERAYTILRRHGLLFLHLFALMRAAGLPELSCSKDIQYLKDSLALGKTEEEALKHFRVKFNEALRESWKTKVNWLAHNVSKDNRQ
Chain of PI3Kδ (P27986 whole entry partner): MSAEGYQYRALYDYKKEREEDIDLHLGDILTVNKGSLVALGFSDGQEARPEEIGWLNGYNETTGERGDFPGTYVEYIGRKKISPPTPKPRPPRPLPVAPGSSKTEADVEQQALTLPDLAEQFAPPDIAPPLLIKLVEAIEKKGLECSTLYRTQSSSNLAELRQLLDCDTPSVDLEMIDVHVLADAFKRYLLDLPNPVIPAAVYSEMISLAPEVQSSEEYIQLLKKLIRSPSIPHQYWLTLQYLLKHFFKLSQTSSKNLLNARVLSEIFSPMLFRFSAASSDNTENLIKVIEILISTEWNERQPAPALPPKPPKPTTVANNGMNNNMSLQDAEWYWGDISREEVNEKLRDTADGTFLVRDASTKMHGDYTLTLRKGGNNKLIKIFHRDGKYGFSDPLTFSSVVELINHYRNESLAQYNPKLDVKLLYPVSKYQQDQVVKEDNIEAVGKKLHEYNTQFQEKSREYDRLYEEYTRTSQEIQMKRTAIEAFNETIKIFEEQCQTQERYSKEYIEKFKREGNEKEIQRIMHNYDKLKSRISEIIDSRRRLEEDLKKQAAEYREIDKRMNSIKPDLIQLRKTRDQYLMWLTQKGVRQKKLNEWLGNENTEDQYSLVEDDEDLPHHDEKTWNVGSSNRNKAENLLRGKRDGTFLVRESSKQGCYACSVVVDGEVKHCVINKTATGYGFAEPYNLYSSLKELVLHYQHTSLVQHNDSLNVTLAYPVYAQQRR

On to `CCOc1ccc(-n2c([C@@H](C)N(Cc3cccnc3)C(=O)Cc3ccc(OC(F)(F)F)cc3)nc3ncccc3c2=O)cc1` [AMG487], for which the “effect of CXCR3 inhibition on the activation of TLR9 by CXCL4 in pDCs” value in data set [1] (CXCL4 10 μg/ml) is “no effect”. Besides, the “effect of CXCR3 inhibition on the activation of TLR9 by CXCL10 in pDCs” value in data set [1] (CXCL10 10 μg/ml) is reported as “no effect”. Turning to `CC[C@H](Nc1ncnc2[nH]cnc12)c1nc2cccc(F)c2c(=O)n1-c1ccccc1` [CAL-101], in data set [2], the “cell viability of pDCs from HDs” value is “without impacting”.
